Measurements published in PMC10382584, “Macrocyclization of linear molecules by deep learning to facilitate macrocyclic drug candidates discovery” (Nature Communications, 2023).
“And” between values parts separate entries of the source, which are not always exact repeats. Equal entries are not always repeated. Where two headings read alike, the source gives them in different places.

Legend:
[1] = Chemical stability in DMSO stock solution (HPLC purity); format: physicochemical; settings: mean±SD
Source text: compounds were formulated in the solubilizing vehicle (5% DMSO/30% PEG400/65% […]
safety to the mice in the test.
6. What was the sample dissolved in for the in vitro and in vivo experiments? Response: The solvent information for the in vitro and in vivo experiments has been added in the revised manuscript. […]
7. Was the stability of the different compounds assessed and compared to Fedratinib? This is generally a critical point in macrocyclic studies. […]
in DMSO stock solution. Test compounds were incubated at room temperature and 60 ℃, respectively, for 72 h, and their purities (%) were determined using HPLC equipped with a CORTECS C18 column (4.6*50 mm, 2.7 μm particle size) and a UV/VIS detector setting of λ=210 nm. All co mpounds were eluted with the two solvent systems ([…] as organic phase in Method I and CH3OH as organic phase in Method II) at a flow rate of 0.3 ml/min. Each experiment repeated for three times and the results are represented as mean±SD.
Ta b e l R 1 . Comparison of chemical stability of different compounds at room temperature and 60 ℃, respectively.

JAK2 = molecular target: T1, JAK2 (Homo sapiens, UniProt O60674); assay: JAK2 enzyme assay (Z'-LYTE kinase assay kit); format: biochemical
T1 construct: 0.05–0.42 ng JAK2, 2 μM peptide substrate (Tyr06)
T1 sequence (O60674 whole entry): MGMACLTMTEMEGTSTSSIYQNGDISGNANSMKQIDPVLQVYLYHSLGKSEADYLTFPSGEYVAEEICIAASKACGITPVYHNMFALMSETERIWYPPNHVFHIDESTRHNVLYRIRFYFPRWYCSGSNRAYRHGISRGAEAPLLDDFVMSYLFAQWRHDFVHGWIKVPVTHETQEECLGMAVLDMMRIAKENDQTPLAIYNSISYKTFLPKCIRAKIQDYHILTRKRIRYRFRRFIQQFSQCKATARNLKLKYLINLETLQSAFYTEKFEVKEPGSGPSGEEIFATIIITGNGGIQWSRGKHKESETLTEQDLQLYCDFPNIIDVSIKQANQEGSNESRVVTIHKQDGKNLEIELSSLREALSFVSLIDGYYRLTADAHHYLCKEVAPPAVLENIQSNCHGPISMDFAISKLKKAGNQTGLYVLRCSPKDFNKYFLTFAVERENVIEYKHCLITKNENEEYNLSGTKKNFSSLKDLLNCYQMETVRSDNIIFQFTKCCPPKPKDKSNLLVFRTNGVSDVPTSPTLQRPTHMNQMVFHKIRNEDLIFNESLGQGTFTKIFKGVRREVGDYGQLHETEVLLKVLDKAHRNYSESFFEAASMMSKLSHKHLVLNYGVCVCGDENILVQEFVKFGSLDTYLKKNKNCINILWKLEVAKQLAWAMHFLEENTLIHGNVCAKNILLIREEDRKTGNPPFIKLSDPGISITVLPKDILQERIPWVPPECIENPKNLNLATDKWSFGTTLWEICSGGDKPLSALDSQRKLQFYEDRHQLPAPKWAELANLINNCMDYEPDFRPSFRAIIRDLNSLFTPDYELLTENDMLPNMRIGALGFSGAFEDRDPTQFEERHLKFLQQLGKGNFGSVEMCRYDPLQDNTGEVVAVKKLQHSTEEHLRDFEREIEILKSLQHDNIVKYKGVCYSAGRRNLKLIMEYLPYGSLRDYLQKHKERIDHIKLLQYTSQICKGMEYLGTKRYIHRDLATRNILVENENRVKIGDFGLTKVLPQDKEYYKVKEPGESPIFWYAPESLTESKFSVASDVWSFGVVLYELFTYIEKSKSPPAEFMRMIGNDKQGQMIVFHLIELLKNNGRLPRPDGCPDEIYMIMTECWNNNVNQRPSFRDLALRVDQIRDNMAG
Protocol: JAK kinase activity assays were performed using Z’-LYTETM kinase assay kit (Life Technologies, pv4122). […] The mixture was added into the 384-well microplate, shaken gently, and then incubated at room temperature for 1 h. Subsequently, 5 μL development solution was added to the well for incubating another 1 h. Finally, 5 μL stop reagent was added to stop the reaction. […] IC50 values were calculated using GraphPad Prism v8.0.3, and three parallel experiments were performed.

SET-2 cells = assay: Cell proliferation assay (CCK-8), SET-2 cells; format: cell-based, human; settings: for Inhibition (%): single wells, replicates 1 and 2
Protocol: (§1) The human erythroid leukemia (HEL 92.1.7) cells were purchased from the American Type Culture Collection (ATCC, TIB-180), and the human megakaryoblastic (SET2) cells were obtained from German Collection of Microorganisms and Cell Cultures (DSMZ, ACC 608). The anti-proliferative activities of compounds were evaluated using WST-8 cell counting kit-8 (Elabscience). HEL and SET-2 cells were seeded at 5000 cells/well in 70 μL RPMI-1640 medium (Hyclon) with 10% FBS (Gibco) to the 96-well plate and incubated overnight at 37 °C with 5% CO2. The compounds were serially diluted in RPMI-1640 medium, and cells were treated separately with 30 μL various concentrations of compounds for 72 h. The final DMSO concentration in the culture wells was 0.1%, which had no effect on the cell viability. Finally, 10 μL of CCK-8 solution was added into the wells. 4 h later, the absorbance values at 450 nm were recorded. IC50 values were determined using GraphPad Prism v8.3.0, and three parallel experiments were performed.

HEL cells = assay: Cell proliferation assay (CCK-8), HEL cells; format: cell-based, human; settings: for Inhibition (%): single wells, replicates 1 and 2
Protocol: as §1

DSS-induced colitis mice = assay: In vivo efficacy study, DSS-induced colitis model; parameters: species or system male BALB/c mice; settings: SASP 500 mg/kg; for Body weight (Fig. 6a) / DAI score (Fig. 6b): individual mice
Protocol: Model mice were divided into four groups and eight mice were included in each group on day 8. […] Meanwhile, solvent was given intragastrically to the control group and model group. On day 15, the mice were sacrificed, and the length and weight of each colon were measured.
Body weight, the stool consistency, and the presence of blood in feces were recorded daily in the morning. […] The maximum score was 9, which was the sum of the scores. About 1-cm colon tissue, which is 0.5 cm away from the anal margin, was collected, and the ileocecal area was used for histopathological examination. After H&E staining, the tissues were scored under single-blind conditions to evaluate the levels of inflammation and tissue damage in the colons following the criteria proposed by ref. [62]. Statistical analyses were performed using SPSS v24.0.

In the case of `Cc1cnc2nc1Nc1cccc(c1)C(=O)N(C)Cc1cc(ccc1OCCN1CCCC1)N2` [Compound 2], the “purity after incubation in DMSO stock solution” value (“purity after incubation” for short) ([1]; 60 ℃, 0 h) is reported as 99.59±0.13%, the “purity after incubation” value ([1]; 60 ℃, 2 h) is reported as 99.60±0.06% and the “purity after incubation” value ([1]; 60 ℃, 24 h) is reported as 100.00±0.00%. The “purity after incubation” value ([1]; 60 ℃, 48 h) was 99.61±0.01%, the “purity after incubation” value ([1]; 60 ℃, 72 h) was 99.43±0.09% and the “purity after incubation” value ([1]; Room Temperature, 0 h) was 99.65±0.05%. For the same molecule, the “purity after incubation” value ([1]; Room Temperature, 2 h) was 99.65±0.05%, the “purity after incubation” value ([1]; Room Temperature, 24 h) was 100.00±0.00% and the “purity after incubation” value ([1]; Room Temperature, 48 h) was 99.99±0.01%. For the same molecule, the “purity after incubation” value ([1]; Room Temperature, 72 h) was 99.50±0.06%, the IC50 (JAK2; JAK2, 25 μM ATP, mean ± SD, n = 3, read-out: Enzyme Inhibitory Activity (IC50)) was 0.364 µM and the IC50 (JAK2; JAK2 enzyme, mean of 3 replicates, read-out: IC50/μM mean, enzyme inhibitory activity) was 0.364 µM. The IC50 (JAK2; JAK2 enzyme, mean ± SD of 3 replicates, read-out: IC50/μM mean ± SD, enzyme inhibitory activity) was 0.364 ± 0.007 µM, the IC50 (JAK2; JAK2 enzyme, single-replicate fits (replicates 1-3), read-out: IC50/μM (individual replicates), enzyme inhibitory activity) was 0.366 µM and 0.356 µM and 0.37 µM and the “Inhibition (%)” value (SET-2 cells; SET-2 cell lines, 0.0977 μM) was 7.592% and 1.623% and 1.518% and -0.378% and 0.918% and 6.534%. For the same molecule, the “Inhibition (%)” value (SET-2 cells; SET-2 cell lines, 0.1953 μM) was 8.325% and -1.100% and -4.241% and -2.322% and 3.294% and 8.909%, the “Inhibition (%)” value (SET-2 cells; SET-2 cell lines, 0.3906 μM) was 0.681% and -1.309% and -10.209% and -2.322% and 6.965% and 5.562% and the “Inhibition (%)” value (SET-2 cells; SET-2 cell lines, 0.7813 μM) was -8.429% and 1.100% and -6.440% and -0.270% and 5.886% and 6.102%. For the same molecule, the “Inhibition (%)” value (SET-2 cells; SET-2 cell lines, 1.5625 μM) was -4.869% and -5.916% and -2.880% and 1.998% and 4.914% and -0.162%, the “Inhibition (%)” value (SET-2 cells; SET-2 cell lines, 3.1250 μM, 3.125 µM) was 4.031% and -0.576% and -2.984% and 1.674% and 9.233% and -1.350% and the “Inhibition (%)” value (SET-2 cells; SET-2 cell lines, 6.2500 μM, 6.25 µM) was 8.744% and 16.702% and 4.555% and 8.801% and 8.153% and 7.613%. For the same molecule, the “Inhibition (%)” value (SET-2 cells; SET-2 cell lines, 12.5000 μM, 12.5 µM) was 20.471% and 17.330% and 11.885% and 18.953% and 16.793% and 14.741%, the IC50 (SET-2 cells; SET-2 cell lines, single-replicate fits, read-out: IC50/μM (individual replicates), cellular antiproliferative activity) was greater than 25 µM and the IC50 (SET-2 cells; SET-2 cells, 72 h, mean ± SD, read-out: Cellular Antiproliferative Activity (IC50) SET-2) was greater than 25 µM. The “Inhibition (%)” value (HEL cells; HEL cell lines, 0.0977 μM) was 2.051% and -1.891% and 1.838% and 11.186% and -5.882% and -1.006%, the “Inhibition (%)” value (HEL cells; HEL cell lines, 0.1953 μM) was 0.772% and 1.838% and 2.477% and 15.575% and -7.833% and -8.321% and the “Inhibition (%)” value (HEL cells; HEL cell lines, 0.3906 μM) was 2.264% and 1.518% and 1.625% and 18.866% and -1.250% and -7.345%. The “Inhibition (%)” value (HEL cells; HEL cell lines, 0.7813 μM) was 10.786% and 8.762% and 8.549% and 18.744% and 6.553% and -6.614%, the “Inhibition (%)” value (HEL cells; HEL cell lines, 1.5625 μM) was 18.882% and 12.064% and 2.264% and 20.207% and 10.332% and -0.152% and the “Inhibition (%)” value (HEL cells; HEL cell lines, 3.1250 μM, 3.125 µM) was 25.273% and 19.521% and 12.916% and 41.664% and 20.207% and 14.721%. For the same molecule, the “Inhibition (%)” value (HEL cells; HEL cell lines, 6.2500 μM, 6.25 µM) was 42.104% and 34.754% and 32.197% and 45.931% and 34.837% and 31.058%, the “Inhibition (%)” value (HEL cells; HEL cell lines, 12.5000 μM, 12.5 µM) was 71.398% and 70.120% and 69.694% and 81.042% and 74.825% and 72.874% and the IC50 (HEL cells; HEL cell lines, mean of 2 replicates, read-out: IC50/μM mean, cellular antiproliferative activity) was 7.34 µM. The IC50 (HEL cells; HEL cell lines, mean ± sd of 2 replicates, read-out: IC50/μM mean ± sd, cellular antiproliferative activity) was 7.34 ± 0.44 µM, the IC50 (HEL cells; HEL cell lines, single-replicate fits, read-out: IC50/μM (individual replicates), cellular antiproliferative activity) was 7.03 µM and 7.65 µM and the IC50 (HEL cells; HEL cells, 72 h, mean ± SD, read-out: Cellular Antiproliferative Activity (IC50) HEL) was 7.34 ± 0.44 µM.
With `O=C(O)c1cc(/N=N/c2ccc(S(=O)(=O)Nc3ccccn3)cc2)ccc1O` [Salicylazosulfapyridine] the “Body weight (Fig. 6a)” value (DSS-induced colitis mice; day 0) was 22.7 and 23.7 and 19.3 and 23.6 and 21.6 and 22.9 and 21.7 (2×), the “DAI score (Fig. 6b)” value (DSS-induced colitis mice; day 0) was 0 and the “DAI score (Fig. 6b)” value (DSS-induced colitis mice; day 1) was 0 (7×) and 1. For the same molecule, the “Body weight (Fig. 6a)” value (DSS-induced colitis mice; day 1, in g (unit assumed)) was 23.2 and 23.6 and 22.1 and 24.5 and 21.4 and 22.4 and 22 and 22.5, the “DAI score (Fig. 6b)” value (DSS-induced colitis mice; day 2) was 0 (7×) and 1 and the “Body weight (Fig. 6a)” value (DSS-induced colitis mice; day 2, in g (unit assumed)) was 23.3. The “DAI score (Fig. 6b)” value (DSS-induced colitis mice; day 3) was 1 (6×) and 0 (2×), the “DAI score (Fig. 6b)” value (DSS-induced colitis mice; day 4) was 4 and 2 and 1 (4×) and 3 and 0 and the “Body weight (Fig. 6a)” value (DSS-induced colitis mice; day 4, in g (unit assumed)) was 22.3 and 22.4 and 22.1 and 23.7 and 20.4 and 22.9 and 21.3 and 22.8. The “DAI score (Fig. 6b)” value (DSS-induced colitis mice; day 5) was 4 and 2 (4×) and 1 (2×) and 6, the “Body weight (Fig. 6a)” value (DSS-induced colitis mice; day 5, in g (unit assumed)) was 20.8 and 20.9 and 21.8 and 22.6 and 19.7 and 21.4 and 20.2 and 21.2 and the “DAI score (Fig. 6b)” value (DSS-induced colitis mice; day 6) was 5 (4×) and 7 and 3 and 1 (2×). The “Body weight (Fig. 6a)” value (DSS-induced colitis mice; day 6, in g (unit assumed)) was 19 and 19.1 and 21.1 and 21.3 and 18.6 and 19.3 and 19.2 and 20.2, the “DAI score (Fig. 6b)” value (DSS-induced colitis mice; day 7) was 8 and 6 and 1 and 4 and 5 (2×) and 3 and 2 and the “Body weight (Fig. 6a)” value (DSS-induced colitis mice; day 7, in g (unit assumed)) was 16.8 and 17.9 and 20.5 and 20.7 and 18.1 and 17.6 and 17 and 18.6. The “DAI score (Fig. 6b)” value (DSS-induced colitis mice; day 8) was 2 (2×) and 5 and 1 (3×) and 0 (2×), the “Body weight (Fig. 6a)” value (DSS-induced colitis mice; day 8, in g (unit assumed)) was 16.9 and 16.6 and 19.6 and 19.9 and 16.5 and 17.3 and 18.4 and 19.2 and the “Body weight (Fig. 6a)” value (DSS-induced colitis mice; day 9) was 18 (2×) and 17.2 and 19.6 and 20.6 and 15.7 and 19.4 and 20.8. The “DAI score (Fig. 6b)” value (DSS-induced colitis mice; day 9) was 0 (7×) and 1, the “DAI score (Fig. 6b)” value (DSS-induced colitis mice; day 10) was 2 (4×) and 1 (2×) and 3 and 0 and the “Body weight (Fig. 6a)” value (DSS-induced colitis mice; day 10, in g (unit assumed)) was 17.1 and 16.7 and 19.2 and 21.8 and 17.6 and 20.2 and 22.1. For the same molecule, the “DAI score (Fig. 6b)” value (DSS-induced colitis mice; day 11) was 0 (5×) and 1 (2×), the “Body weight (Fig. 6a)” value (DSS-induced colitis mice; day 11, in g (unit assumed)) was 17.6 and 16.3 and 19.7 and 21.9 and 19.1 and 19.8 and 22.6 and the “DAI score (Fig. 6b)” value (DSS-induced colitis mice; day 12) was 0. For the same molecule, the “Body weight (Fig. 6a)” value (DSS-induced colitis mice; day 12, in g (unit assumed)) was 19 and 17.1 and 20.3 and 22.2 and 19.5 and 21.5 and 22.4, the “Body weight (Fig. 6a)” value (DSS-induced colitis mice; day 13, in g (unit assumed)) was 18.8 and 17.7 and 20 and 23.6 and 20.2 and 21.5 and 22.6 and the “Body weight (Fig. 6a)” value (DSS-induced colitis mice; day 14, in g (unit assumed)) was 19.5 and 18.6 and 19.8 and 24.4 and 21 and 22.1 and 22.5. The “HE staining score (Fig. 6d)” value (DSS-induced colitis mice; individual colon tissues (n = 8)) was 3 and 1 and 2.
